Measured values taken from patent US20080039481A1, “Seed Dressing for Soya Bean” (BAYER CROPSCIENCE AG, priority 2004, published 2008).

How the values were obtained:
[1] = tested on: Phakopsora Pachyrhizi; assay: Seed dressing field trial, action of fluquinconazole against soya bean rust; assay type: in vivo; conditions: natural infection (control 75%)
Method: Action of Fluquinconazole against Phakopsora Pachyrhizi Seed Dressing: Fluquinconazole 25 WPC (Wettable Powder) For dressing, the seed was shaken for 1 minute with the seed dressing in a closed plastic bag. The seed was sown in a field (4 plots, plot size in each case 10 m^2, 40 seeds per m^2) and, one day after sowing, artificially irrigated. The natural degree of infection in the control was, on average, 75%. The efficacy is expressed in percent. 0% means an efficacy which corresponds with that of the control, whereas an efficacy of 100% means that no infection is observed.

[2] = tested on: Phakopsora Pachyrhizi; assay: Seed dressing field trial, action of prothioconazole against soya bean rust; assay type: in vivo; conditions: duration 28 days, natural infection (control 75%)
Method: Action of Prothioconazole against Phakopsora Pachyrhizi
Seed Dressing: Prothioconazole
For dressing, the seed was shaken for 1 minute with the seed dressing in a closed plastic bag.
The seed was sown in a field (4 plots, plot size in each case 10 m^2, 40 seeds per m^2) and, one day after sowing, artificially irrigated.
The natural degree of infection in the control was, on average, 75%.
The efficacy is expressed in percent. 0% means an efficacy which corresponds with that of the control, whereas an efficacy of 100% means that no infection is observed.

Measured: Efficacy

O=c1c2cc(F)ccc2nc(-n2cncn2)n1-c1ccc(Cl)cc1Cl [fluquinconazole]
100%: [1]; 5 g of fluquinconazole/100 kg of seed, duration 28 days | [1]; 50 g of fluquinconazole/100 kg of seed, duration 22 days | [1]; 50 g of fluquinconazole/100 kg of seed, duration 33 days | [1]; 50 g of fluquinconazole/100 kg of seed, duration 37 days

OC(Cc1ccccc1Cl)(Cn1nc[nH]c1=S)C1(Cl)CC1 (stereo not drawn) [prothioconazole]
100%: [2]; 5 g of prothioconazole/100 kg of seed | [2]; 10 g of prothioconazole/100 kg of seed
